Target: GABAa receptor
Assay: GABAa receptor binding assay: displacement of [3H]-Flumazenil (RO15-1788) from rat cortical tissue
Settings: rat cortical tissue homogenate, 0.5 nM 3H-RO15-1788, 30 min at 4° C., pH 7.4
Method: The pharmaceutical utility of compounds of this invention are indicated by the following assay for GABAa receptor activity.
Assays are carried out as described in Thomas and Tallman (J. Bio. Chem. 156: 9838-9842 , J. Neurosci. 3: 433-440, 1983). Rat cortical tissue is dissected and homogenized in 25 volumes (w/v) of 0.05M Tris HCl buffer (pH 7.4 at 4° C.). The tissue homogenate is centrifuged in the cold (4° ) at 20,000×g for 20'. The supernatant is decanted and the pellet is rehomogenized in the same volume of buffer and again centrifuged at 20,000×g. The supernatant is decanted and the pellet is frozen at -20° C. overnight. The pellet is then thawed and rehomogenized in 25 volume (original wt/vol) of buffer and the procedure is carried out twice. The pellet is finally resuspended in 50 volumes (w/vol of 0.05M Tris HCI buffer (pH 7.4 at […]).
Incubations contain 100 μl of tissue homogenate, 100 μl of radioligand 0.5nM (^3 H-RO15-1788 [^3 H-Flumazenil] specific activity 80 Ci/mmol), drug or blocker and buffer to a total volume of 500 μl. Incubations are carried for 30 min at 4° C. then are rapidly filtered through GFB filters to separate free and bound ligand. Filters are washed twice with fresh 0.05M Tris HCI buffer (pH 7.4 at 4° C.) and counted in a liquid scintillation counter. 1.0 μM diazepam is added to some tubes to determine nonspecific binding. Data are collected in triplicate determinations. averaged and % inhibition of total specific binding is calculated. Total Specific Binding=Total-Nonspecific. In some cases, the amounts of unlabeled drugs is varied and total displacement curves of binding are carried out. Data are converted to a form for the calculation of IC50 and Hill Coefficient (nH).

Row | Compound | IC50 [nM]
1 | Fc1ccccc1-c1cc2c3c([nH]c2cn1)CCN(Cc1ccccc1)C3 [Compound 20, 8-Benzyl-2-(2-fluorophenyl)-5,6,7,9-tetrahydro-5H-pyrido[4,3-b]pyrido[4,3-d]-pyrrole] | 130
2 | Fc1ccccc1-c1cc2c3c([nH]c2cn1)CCCC3 [Compound 2] | 550
3 | COc1cccc(-c2cc3c4c([nH]c3cn2)CCC2(C4)OCCO2)c1 [Compound 18, 2'-(3-Methoxyphenyl)-5',6',7',9'-tetrahydro-spiro[(1,3)dioxolane-2,8'-5H-indolo[3,4-b]pyridine]] | 120
4 | COc1cccc(-c2cc3c4c([nH]c3cn2)CCN(Cc2ccccc2)C4)c1 [Compound 24, 8-Benzyl-2-(3-methoxyphenyl)-5,6,7,9-tetrahydro-5H-pyrido[4,3-b]pyrido[4,3-d]-pyrrole] | 240

Source: patent US5367077A (priority 1992, dated 1994)
